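1) Cells in 96-well plates. 2) Compound, 48 h, 5 concentrations. 3) Linear interpolation between surrounding doses. 4) Unreached endpoint = highest concentration. GI50 marks 50% less growth. TGI: total growth inhibition.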
What was measured:
Test in all cases: NCI-60 cell line screen, 48 h
DU-145 prostate = system: DU-145 prostate
PC-3 prostate = system: PC-3 prostate
ACHN renal = system: ACHN renal
RXF 393 renal = system: RXF 393 renal
HCC-2998 colon = system: HCC-2998 colon
SNB-19 CNS = system: SNB-19 CNS
UACC-62 melanoma = system: UACC-62 melanoma
HL-60(TB) leukemia = system: HL-60(TB) leukemia
NCI-H522 lung = system: NCI-H522 lung
KM20L2 colon = system: KM20L2 colon
SNB-78 CNS = system: SNB-78 CNS

CN(O)C(=O)CCCC(=O)NCC(C)(C)CNC(=O)CCCC(=O)N(C)O
TGI (DU-145 prostate): > 100 µM | TGI (PC-3 prostate): > 100 µM | TGI (ACHN renal): > 100 µM | TGI (RXF 393 renal): > 100 µM | TGI (HCC-2998 colon): > 100 µM | TGI (SNB-19 CNS): > 100 µM | TGI (UACC-62 melanoma): > 100 µM | TGI (HL-60(TB) leukemia): > 100 µM

Cc1[nH]c2ccccc2c1/C=N/NC(=O)c1cccc(I)c1
TGI (NCI-H522 lung): 63.7 µM | TGI (DU-145 prostate): 92.5 µM | TGI (PC-3 prostate): 66 µM | TGI (ACHN renal): 91.3 µM | TGI (RXF 393 renal): 36.3 µM | TGI (HCC-2998 colon): 36.1 µM | TGI (SNB-19 CNS): > 100 µM | TGI (UACC-62 melanoma): 34.5 µM | TGI (HL-60(TB) leukemia): 57.5 µM

COC(=O)[C@]1(c2ccc(N(C)C)cc2OC)C[C@@H]2CCCN(CCc3c1[nH]c1ccccc31)C2
TGI (NCI-H522 lung): 21.8 µM | TGI (KM20L2 colon): 32.5 µM | TGI (SNB-78 CNS): > 91.1 µM | TGI (RXF 393 renal): 37.9 µM | TGI (HCC-2998 colon): 29.8 µM | TGI (SNB-19 CNS): > 100 µM | TGI (UACC-62 melanoma): 32.4 µM | TGI (HL-60(TB) leukemia): 27.3 µM

O=P(Nc1ccccc1)(Oc1ccccc1)N(CCCl)CCCl (stereo not given)
TGI (NCI-H522 lung): 28.8 µM | TGI (ACHN renal): > 100 µM | TGI (KM20L2 colon): > 100 µM | TGI (SNB-78 CNS): > 100 µM | TGI (HCC-2998 colon): > 100 µM | TGI (UACC-62 melanoma): > 100 µM | TGI (HL-60(TB) leukemia): > 100 µM

O=C(c1cccnc1)N1N=C(c2ccccc2)CC1(O)c1cc(F)c(Cl)cc1Cl (stereo not given)
TGI (NCI-H522 lung): > 100 µM | TGI (DU-145 prostate): > 100 µM | TGI (PC-3 prostate): 72.2 µM | TGI (ACHN renal): 58.5 µM | TGI (RXF 393 renal): 34.9 µM | TGI (SNB-19 CNS): > 100 µM | TGI (HL-60(TB) leukemia): 51.3 µM

CCCOP(=O)(OCCC)OC(C(F)(F)F)C(F)(F)F
TGI (NCI-H522 lung): > 100 µM | TGI (DU-145 prostate): > 100 µM | TGI (ACHN renal): > 100 µM | TGI (RXF 393 renal): > 100 µM | TGI (HCC-2998 colon): > 100 µM | TGI (SNB-19 CNS): > 100 µM | TGI (UACC-62 melanoma): > 100 µM | TGI (HL-60(TB) leukemia): > 100 µM

O=C(Nc1ccccc1Cl)c1ccc([N+](=O)[O-])cc1
TGI (NCI-H522 lung): > 100 µM | TGI (KM20L2 colon): > 100 µM | TGI (SNB-78 CNS): > 100 µM | TGI (RXF 393 renal): > 100 µM | TGI (HCC-2998 colon): > 100 µM | TGI (SNB-19 CNS): > 100 µM | TGI (UACC-62 melanoma): > 100 µM

O=C(O)/C(=C\c1ccc(O)cc1)c1cccc2ccccc12
TGI (NCI-H522 lung): > 100 µM | TGI (DU-145 prostate): > 100 µM | TGI (PC-3 prostate): > 100 µM | TGI (ACHN renal): > 100 µM | TGI (RXF 393 renal): > 100 µM | TGI (HCC-2998 colon): > 100 µM | TGI (SNB-19 CNS): > 100 µM | TGI (UACC-62 melanoma): > 100 µM

COc1ccc(-c2ncn(C[Si](C)(C)C)c2-c2ccc(OC)cc2)cc1
TGI (NCI-H522 lung): 16.2 µM | TGI (PC-3 prostate): 16.9 µM | TGI (ACHN renal): 20.5 µM | TGI (RXF 393 renal): 21.1 µM | TGI (HCC-2998 colon): 7.34 µM | TGI (SNB-19 CNS): 26.2 µM | TGI (UACC-62 melanoma): 10.2 µM | TGI (HL-60(TB) leukemia): 4.57 µM

CC(C)C(=O)/C=C/S/C=C/C(=O)C(C)C
TGI (NCI-H522 lung): 3.62 µM | TGI (DU-145 prostate): 29.4 µM | TGI (ACHN renal): 5.27 µM | TGI (RXF 393 renal): 19.4 µM | TGI (SNB-19 CNS): > 100 µM | TGI (UACC-62 melanoma): 27.9 µM

COc1ccc(NC(C(N)=O)c2cc3cc(Br)ccc3nc2Cl)cc1 (stereo not given)
TGI (NCI-H522 lung): > 100 µM | TGI (DU-145 prostate): > 100 µM | TGI (PC-3 prostate): > 100 µM | TGI (ACHN renal): > 100 µM | TGI (RXF 393 renal): > 100 µM | TGI (HCC-2998 colon): > 100 µM | TGI (SNB-19 CNS): > 100 µM | TGI (UACC-62 melanoma): > 100 µM | TGI (HL-60(TB) leukemia): > 100 µM

CCCCCCCCCCCCCC[n+]1ccc(C(N)=O)cc1
GI50 (NCI-H522 lung): 1610 nM | TGI (NCI-H522 lung): 4.68 µM | GI50 (DU-145 prostate): 2660 nM | TGI (DU-145 prostate): 10.7 µM | GI50 (PC-3 prostate): 703 nM | TGI (PC-3 prostate): 2.88 µM | GI50 (ACHN renal): 3.47 µM | TGI (ACHN renal): 15.9 µM | GI50 (UACC-62 melanoma): 1900 nM | TGI (UACC-62 melanoma): 4.65 µM

From PubChem BioAssay (NCI)
